Data: patent US11590133B2, “Methods and compositions for treatment of BRAF mutant cancers” (MEMORIAL SLOAN KETTERING CANCER CENTER, priority 2016, dated 2023)

Experiments:
[1] = test system: ERK; conditions: cited from earlier work
[2] = test system: BRAFV600E-mutant lung cancer patient-derived xenografts (PDX); test: ERK inhibitor monotherapy of lung cancer PDX, tumor growth; assay type: in vivo, mice; conditions: SCH984 75 mpk; FIG. 1B
Source text: These were established as described^38,39, in accordance with the Memorial Sloan Kettering Cancer Center Institutional Review Board. Informed consent was obtained in all cases. All animal studies were done in accordance with protocols approved by the MSKCC Animal Care and Use Committee. Melanoma models were generated previously40. Patient derived tissue (biopsy or surgical resection) or pleural fluid was used to establish the lung cancer models in Table I. For biopsy or resection specimens, the tumor sample was minced under aseptic conditions, vigorously washed in 1×PBS, passed through a 60-μm filter, centrifuged, and then re-suspended in 500 μL of Matrigel (BD Biosciences) at 4° C. For pleural effusions, the fluid was centrifuged in order to isolate the cellular fraction and washed several times in cold PBS. Cells were then injected subcutaneously in the flanks of NSG mice and monitored for tumor growth. […]
Nu/nu athymic or NSG mice were obtained from the Harlan Laboratories and maintained in compliance with IACUC guidelines. […] Doubling times were calculated by fitting tumor volumes into exponential growth curves and determining their rate constants in Prism. […] Statistically significant differences in rate constants were determined by using the extra-sum-of-squares F test (with p<0.05) embedded in Prism. […]

CS[C@@]1(C(=O)Nc2ccc3[nH]nc(-c4ccc(OC(C)C)nc4)c3c2)CCN(CC(=O)N2CC=C(c3ccc(-c4ncn(C)n4)cc3)CC2)C1 [SCH984]
effect on ERK kinase activity and ERK phosphorylation by MEK ([1]; ATP-competitive inhibitor): inhibits the kinase activity of ERK and prevents its phosphorylation by MEK | preference for phosphorylation state of ERK [1]: preferentially targets unphosphorylated ERK | PDX tested in which growth was inhibited [2]: 3/4 | duration of response [2]: several weeks
